Experimental data as given in PMC9954146, “Anti-Leukaemic Activity of Rilpivirine Is Mediated by Aurora A Kinase Inhibition” (Cancers, 2023).
Read-outs that look alike come from different tables or passages of the source.

Legend:
[1] = Tolerated dose in non-tumour-bearing mice; assay type: in vivo; details: up to an oral dose of 300 mg/kg, once daily for seven days; non-tumour-bearing female BALB/c nude mice
Procedure: Animal experiments were performed as reported previously. All animal experiments were conducted following the institutional ethical principles of animal care and approved by the University of South Australia Animal Ethics Committee.

[2] = In vivo safety profile in HL-60 engrafted mice; parameters: species or system mouse; details: 200 mg/kg orally, once daily for 14 days
Procedure: Female 6–7-week-old BALB/c nude mice with tumour volumes of 100–200 mm^3 were allocated to two groups (n = 3 per group) and treated with vehicle (0.5% HPMC in water) or rilpivirine (200 mg/kg) daily for 14 days. Upon 24 h post the final dose, mice were humanely killed, and blood, bone marrow, heart, kidney, intestine, liver, and stomach were collected for histopathological analysis. Blood was collected in citrate-treated tubes and a complete blood count was performed by Gribbles Veterinary Pathology (South Australia, Australia). Organs were collected in 10% neutral buffered formalin and stained with hematoxylin and eosin externally by the Hanson Histology Services (South Australia, Australia), while histopathologic analysis was performed by a board-certified pathologist.

Aurora A = biological target: Aurora A; parameters: method as in PMID 36297298; details: apparent Ki from IC50 and Km (ATP), cited from earlier work
U-937 cells = experiment: Resazurin cell viability assay; assay type: cell-based; details: Homo sapiens
Procedure: (§1) Cell viability was determined by a resazurin-based assay as described previously. Briefly, 5 × 10^3 cells/well were seeded into 96-well plates (Corning Inc., Corning, NY, USA) in 180 µL of RPMI 1640 medium and incubated overnight at 37 °C with 5% CO2. Next day, cells were treated with rilpivirine after serially diluted (1:2 dilution for final concentrations ranging from 0.625 µM to 40 µM) or DMSO (0.1%) for specified time periods (24, 48, or 72 h). At the end of the treatment period, 20 µL of resazurin (0.1 mg/mL in PBS) was added per well and incubated for further 4 h. Fluorescence intensities were recorded at 570 nm (excitation)/585 nm (emission) using an EnVision® multilabel plate reader (PerkinElmer, MA, USA). Drug concentrations required for cell viability reduction by 50% (GI50) compared with untreated (DMSO vehicle-treated only) control were determined by a non-linear regression model using GraphPad Prism software version 7.02 (La Jolla, CA, USA).

NB4 cells = experiment: Resazurin cell viability assay; assay type: cell-based; details: Homo sapiens
Procedure: as §1

K-562 cells = experiment: Resazurin cell viability assay; assay type: cell-based, human; details: Homo sapiens
Procedure: as §1

MYO3B(h) = biological target: T1, MYO3B(h) (Homo sapiens, UniProt Q8WXR4); experiment: Kinase panel; assay type: biochemical; details: read-out: % Residual Activity
T1 construct: purchased Eurofins (KinaseProfiler)
Method in brief: (§2)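 Cheng–Prusoff conversion of IC50 to Ki; IC50s from radioisotope-based assays at Km(ATP). Kinome-wide rilpivirine profiling.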

CDKL3(h) = biological target: T2, CDKL3(h) (Homo sapiens, UniProt Q8IVW4); experiment: Kinase panel; assay type: biochemical; details: read-out: % Residual Activity
T2 construct: purchased Eurofins (KinaseProfiler)
Method in brief: as §2

Cdc7/cyclinB1(h) = biological target: T3, Cdc7/cyclinB1(h) (Homo sapiens, UniProt O00311); experiment: Kinase panel; assay type: biochemical; details: read-out: % Residual Activity
T3 construct: purchased Eurofins (KinaseProfiler)
Method in brief: as §2

PKG1β(h) = biological target: T4, PKG1β(h) (Homo sapiens, UniProt Q13976); experiment: Kinase panel; assay type: biochemical; details: read-out: % Residual Activity
T4 construct: purchased Eurofins (KinaseProfiler)
Method in brief: as §2

AMPKα1(h) = biological target: T5, AMPKα1(h) (Homo sapiens, UniProt Q13131); experiment: Kinase panel; assay type: biochemical; details: read-out: % Residual Activity
T5 construct: purchased Eurofins (KinaseProfiler)
Method in brief: as §2

CDK16/cyclinY(h) = biological target: T6, CDK16/cyclinY(h) (Homo sapiens, UniProt Q00536); experiment: Kinase panel; assay type: biochemical; details: read-out: % Residual Activity
T6 construct: purchased Eurofins (KinaseProfiler)
Method in brief: as §2

CK2α2(h) = biological target: T7, CK2α2(h) (Homo sapiens, UniProt P19784); experiment: Kinase panel; assay type: biochemical; details: read-out: % Residual Activity
T7 construct: purchased Eurofins (KinaseProfiler)
Method in brief: as §2

Syk(h) = biological target: T8, Syk(h) (Homo sapiens, UniProt P43405); experiment: Kinase panel; assay type: biochemical; details: read-out: % Residual Activity
T8 construct: purchased Eurofins (KinaseProfiler)
Method in brief: as §2

MSK2(h) = biological target: T9, MSK2(h) (Homo sapiens, UniProt O75676); experiment: Kinase panel; assay type: biochemical; details: read-out: % Residual Activity
T9 construct: purchased Eurofins (KinaseProfiler)
Method in brief: as §2

MAPK2(h) = biological target: T10, MAPK2(h) (Homo sapiens, UniProt P28482); experiment: Kinase panel; assay type: biochemical; details: read-out: % Residual Activity
T10 construct: purchased Eurofins (KinaseProfiler)
Method in brief: as §2

HL-60 xenograft = experiment: In vivo anti-cancer efficacy, HL-60 xenograft; details: 200 mg/kg oral gavage once daily for 15 days
Procedure: An in vivo anti-cancer efficacy study was performed as reported previously. Briefly, female nude BALB/c mice (6–8 weeks of age) were engrafted with HL-60 human leukaemic cells subcutaneously into the rear flanks. Before inoculation, HL-60 (5 × 10^6) cells were cultured, harvested, and re-suspended in a 1:1 mixture of serum-free media and Matrigel (BD Biosciences, NSW, Australia). Mice with 100–200 mm^3 tumour size were allocated randomly into the control or treatment group. Rilpivirine and vehicle (0.5% HPMC) were administered by oral gavage daily. Mice were checked daily for any clinical signs of toxicity, including weight loss. Tumour volume was measured every other day and was calculated as length × width × height. At the end of the study period, or if clinical endpoints were reached as determined by a clinical record sheet score of 4, body condition score of 1, weight loss of ≥15%, or tumour growth of ≥2000 mm^3, the mouse was euthanised. Data analysis was performed using GraphPad Prism software version 7.02 (La Jolla, CA, USA).

T3 sequence (O00311 whole entry): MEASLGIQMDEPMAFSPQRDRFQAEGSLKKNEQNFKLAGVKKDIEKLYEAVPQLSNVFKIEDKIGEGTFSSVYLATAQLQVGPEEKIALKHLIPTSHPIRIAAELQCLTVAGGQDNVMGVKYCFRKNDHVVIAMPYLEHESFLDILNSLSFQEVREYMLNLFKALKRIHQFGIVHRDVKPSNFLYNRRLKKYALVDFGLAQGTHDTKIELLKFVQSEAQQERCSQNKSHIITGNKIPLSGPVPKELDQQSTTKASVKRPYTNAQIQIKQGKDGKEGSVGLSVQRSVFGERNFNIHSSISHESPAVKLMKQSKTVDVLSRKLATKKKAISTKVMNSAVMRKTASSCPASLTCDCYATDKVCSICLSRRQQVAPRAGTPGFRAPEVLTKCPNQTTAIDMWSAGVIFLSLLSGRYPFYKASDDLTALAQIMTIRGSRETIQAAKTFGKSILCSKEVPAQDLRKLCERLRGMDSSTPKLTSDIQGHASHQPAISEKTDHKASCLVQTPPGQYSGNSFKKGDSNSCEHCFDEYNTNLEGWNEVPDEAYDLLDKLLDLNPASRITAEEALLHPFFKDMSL
T7 sequence (P19784 whole entry): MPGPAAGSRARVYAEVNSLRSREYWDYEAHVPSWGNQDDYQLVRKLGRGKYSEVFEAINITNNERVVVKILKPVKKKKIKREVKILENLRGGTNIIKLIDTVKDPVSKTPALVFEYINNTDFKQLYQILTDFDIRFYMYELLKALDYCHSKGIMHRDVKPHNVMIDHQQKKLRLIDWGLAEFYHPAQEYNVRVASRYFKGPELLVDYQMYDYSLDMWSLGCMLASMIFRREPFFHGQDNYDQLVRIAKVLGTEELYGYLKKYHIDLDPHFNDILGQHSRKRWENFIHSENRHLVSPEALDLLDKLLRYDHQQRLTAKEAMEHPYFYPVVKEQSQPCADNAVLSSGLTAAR
T2 sequence (Q8IVW4 whole entry): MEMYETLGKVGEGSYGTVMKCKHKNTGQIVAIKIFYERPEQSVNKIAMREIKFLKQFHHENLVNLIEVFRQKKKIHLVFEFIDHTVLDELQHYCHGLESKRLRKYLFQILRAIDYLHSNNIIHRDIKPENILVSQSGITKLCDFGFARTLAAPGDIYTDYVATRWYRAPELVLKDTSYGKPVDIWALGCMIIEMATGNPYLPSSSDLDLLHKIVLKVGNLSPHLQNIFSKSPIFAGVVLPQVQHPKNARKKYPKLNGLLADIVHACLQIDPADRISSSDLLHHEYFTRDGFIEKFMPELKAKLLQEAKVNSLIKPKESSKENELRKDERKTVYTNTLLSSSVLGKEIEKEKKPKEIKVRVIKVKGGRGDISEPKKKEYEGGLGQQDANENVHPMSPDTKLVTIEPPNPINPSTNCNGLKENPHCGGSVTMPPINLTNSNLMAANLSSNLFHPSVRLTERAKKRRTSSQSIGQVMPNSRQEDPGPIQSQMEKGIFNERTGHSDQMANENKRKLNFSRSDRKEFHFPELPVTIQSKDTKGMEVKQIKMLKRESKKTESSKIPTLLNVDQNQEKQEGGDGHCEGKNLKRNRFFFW
T9 sequence (O75676 whole entry): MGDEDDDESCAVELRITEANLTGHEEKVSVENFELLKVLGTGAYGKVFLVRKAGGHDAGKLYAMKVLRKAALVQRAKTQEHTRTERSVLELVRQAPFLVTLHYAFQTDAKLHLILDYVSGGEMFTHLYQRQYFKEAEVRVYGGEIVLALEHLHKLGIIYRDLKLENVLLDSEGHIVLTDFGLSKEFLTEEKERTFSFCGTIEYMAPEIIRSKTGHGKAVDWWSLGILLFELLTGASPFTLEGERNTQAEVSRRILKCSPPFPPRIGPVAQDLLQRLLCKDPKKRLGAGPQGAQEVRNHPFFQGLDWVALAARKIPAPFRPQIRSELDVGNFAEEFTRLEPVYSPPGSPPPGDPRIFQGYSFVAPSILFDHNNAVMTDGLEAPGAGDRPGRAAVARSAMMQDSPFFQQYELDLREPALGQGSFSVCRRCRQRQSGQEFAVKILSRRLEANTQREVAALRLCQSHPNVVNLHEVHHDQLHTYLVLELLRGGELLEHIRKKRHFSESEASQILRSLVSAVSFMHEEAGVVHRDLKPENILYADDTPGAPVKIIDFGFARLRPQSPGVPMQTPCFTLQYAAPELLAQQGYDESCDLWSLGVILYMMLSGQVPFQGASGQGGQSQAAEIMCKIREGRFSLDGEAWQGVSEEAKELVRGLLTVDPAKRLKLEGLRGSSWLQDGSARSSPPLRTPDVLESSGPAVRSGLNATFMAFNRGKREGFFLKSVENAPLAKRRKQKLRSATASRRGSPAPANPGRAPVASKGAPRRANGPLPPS
T10 sequence (P28482 whole entry): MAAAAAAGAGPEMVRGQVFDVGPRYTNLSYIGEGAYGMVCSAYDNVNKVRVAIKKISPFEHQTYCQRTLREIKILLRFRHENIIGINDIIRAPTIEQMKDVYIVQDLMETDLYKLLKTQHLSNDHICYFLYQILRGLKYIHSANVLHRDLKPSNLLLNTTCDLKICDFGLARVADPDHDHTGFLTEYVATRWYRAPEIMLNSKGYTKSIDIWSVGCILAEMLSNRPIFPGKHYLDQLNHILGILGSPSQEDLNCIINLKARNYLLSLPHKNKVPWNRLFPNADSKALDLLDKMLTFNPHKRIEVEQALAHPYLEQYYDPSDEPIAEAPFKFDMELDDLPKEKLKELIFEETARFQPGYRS
T6 sequence (Q00536 whole entry): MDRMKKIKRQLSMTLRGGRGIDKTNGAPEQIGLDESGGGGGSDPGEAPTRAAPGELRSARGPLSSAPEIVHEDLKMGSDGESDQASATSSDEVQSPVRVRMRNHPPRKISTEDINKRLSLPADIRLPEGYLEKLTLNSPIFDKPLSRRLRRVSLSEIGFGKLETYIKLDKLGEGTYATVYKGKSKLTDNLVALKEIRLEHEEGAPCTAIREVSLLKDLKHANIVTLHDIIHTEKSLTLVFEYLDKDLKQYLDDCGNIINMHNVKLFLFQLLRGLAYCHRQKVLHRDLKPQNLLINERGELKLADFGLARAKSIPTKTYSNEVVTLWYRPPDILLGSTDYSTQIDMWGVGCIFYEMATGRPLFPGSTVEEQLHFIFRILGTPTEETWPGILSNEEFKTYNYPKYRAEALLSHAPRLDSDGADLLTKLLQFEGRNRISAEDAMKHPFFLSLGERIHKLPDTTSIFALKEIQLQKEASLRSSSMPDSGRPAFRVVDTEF
T6 sequence (Q8ND76 whole entry partner): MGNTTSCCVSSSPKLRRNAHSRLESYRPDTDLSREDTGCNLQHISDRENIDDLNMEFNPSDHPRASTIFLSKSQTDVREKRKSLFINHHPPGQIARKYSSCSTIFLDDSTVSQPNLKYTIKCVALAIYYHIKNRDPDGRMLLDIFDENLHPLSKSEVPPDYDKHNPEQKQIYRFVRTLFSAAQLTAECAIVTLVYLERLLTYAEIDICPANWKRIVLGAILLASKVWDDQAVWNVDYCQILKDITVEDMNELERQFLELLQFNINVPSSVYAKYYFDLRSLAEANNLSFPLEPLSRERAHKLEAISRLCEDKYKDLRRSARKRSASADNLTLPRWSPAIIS
T5 sequence (Q13131 whole entry): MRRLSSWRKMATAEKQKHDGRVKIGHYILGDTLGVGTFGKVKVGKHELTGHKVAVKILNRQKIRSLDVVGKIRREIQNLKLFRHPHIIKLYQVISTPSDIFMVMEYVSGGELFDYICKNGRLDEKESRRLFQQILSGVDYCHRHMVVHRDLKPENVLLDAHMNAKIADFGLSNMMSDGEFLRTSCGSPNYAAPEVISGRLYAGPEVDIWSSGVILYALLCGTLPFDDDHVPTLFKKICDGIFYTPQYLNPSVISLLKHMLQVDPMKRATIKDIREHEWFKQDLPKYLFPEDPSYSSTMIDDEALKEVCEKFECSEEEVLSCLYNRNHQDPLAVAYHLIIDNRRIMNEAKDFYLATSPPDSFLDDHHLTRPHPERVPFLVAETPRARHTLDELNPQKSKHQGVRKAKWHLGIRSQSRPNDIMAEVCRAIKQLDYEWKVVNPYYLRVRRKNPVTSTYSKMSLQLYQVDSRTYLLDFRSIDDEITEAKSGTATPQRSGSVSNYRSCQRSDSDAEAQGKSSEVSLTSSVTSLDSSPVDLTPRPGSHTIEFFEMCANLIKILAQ
T5 sequence (Q9Y478 whole entry partner): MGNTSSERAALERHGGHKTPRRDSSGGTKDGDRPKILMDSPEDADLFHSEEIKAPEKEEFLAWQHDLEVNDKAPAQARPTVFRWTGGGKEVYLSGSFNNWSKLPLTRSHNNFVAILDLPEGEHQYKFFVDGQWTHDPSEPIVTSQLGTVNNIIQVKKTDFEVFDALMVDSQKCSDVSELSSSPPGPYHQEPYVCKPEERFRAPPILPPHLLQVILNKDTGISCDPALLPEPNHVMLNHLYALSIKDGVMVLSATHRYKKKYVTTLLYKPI
T5 sequence (P54619 whole entry partner): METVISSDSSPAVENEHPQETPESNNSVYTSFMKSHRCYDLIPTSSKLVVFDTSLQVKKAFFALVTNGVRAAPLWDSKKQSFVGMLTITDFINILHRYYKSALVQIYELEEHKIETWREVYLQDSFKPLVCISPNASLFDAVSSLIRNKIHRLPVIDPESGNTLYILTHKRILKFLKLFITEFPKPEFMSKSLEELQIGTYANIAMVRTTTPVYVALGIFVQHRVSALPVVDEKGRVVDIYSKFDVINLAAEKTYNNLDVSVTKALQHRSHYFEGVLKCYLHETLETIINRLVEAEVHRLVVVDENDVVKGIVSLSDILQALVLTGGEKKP

SMILES: Cc1cc(/C=C/C#N)cc(C)c1Nc1ccnc(Nc2ccc(C#N)cc2)n1 [rilpivirine, (E)-4-((4-((4-(2-cyanoethenyl)-2,6-dimethylphenyl)amino)pyrimidin-2-yl)amino)benzonitrile]
- body weight and clinical signs of toxicity [1]: did not cause any significant changes in body weight (i.e., >15%) or show overt clinical signs of toxicity
- complete blood count (red blood cells, neutrophils, lymphocytes, platelets) [2]: did not show any noticeable effects
- histopathology of major organs [2]: did not cause any tissue damage in major organs
- Ki (Aurora A): ~116 nM
- Ki (Aurora A; listed as Rilpivirine): 120 nM
- GI50 (U-937 cells; U-937, 24 h): 12.1 ± 2.97 µM
- GI50 (U-937 cells; U-937, 48 h): 5.77 ± 1 µM
- GI50 (U-937 cells; U-937, 72 h): 4.79 ± 0.17 µM
- GI50 (NB4 cells; NB-4, 24 h): 8.94 ± 1.02 µM
- GI50 (NB4 cells; NB-4, 48 h): 6.54 ± 0.83 µM
- GI50 (NB4 cells; NB-4, 72 h): 4.6 ± 0.35 µM
- GI50 (K-562 cells; K562, 24 h): 12.4 ± 2.16 µM
- GI50 (K-562 cells; K562, 48 h): 8.43 ± 0.37 µM
- GI50 (K-562 cells; K562, 72 h): 7.36 ± 0.24 µM
- remaining activity at 1 µM (MYO3B(h)): 96%
- remaining activity at 1 µM (CDKL3(h)): 58%
- remaining activity at 1 µM (Cdc7/cyclinB1(h)): 93%
- remaining activity at 1 µM (PKG1β(h)): 79%
- remaining activity at 1 µM (AMPKα1(h)): 44%
- remaining activity at 1 µM (CDK16/cyclinY(h)): 96%
- remaining activity at 1 µM (CK2α2(h)): 104%
- remaining activity at 1 µM (Syk(h)): 79%
- remaining activity at 1 µM (MSK2(h)): 105%
- remaining activity at 1 µM (MAPK2(h)): 101%
- day from which reduction in tumour growth was statistically significant (p < 0.001) (HL-60 xenograft): ≥ 11 days
- signs of toxicity or weight loss during treatment (HL-60 xenograft): did not cause any apparent signs of toxicity or weight loss
- tumour growth compared with vehicle-treated group (HL-60 xenograft): noticeable delay in tumour growth
